Measured values as given in PMC10330135 (Chemistry (Weinheim an der Bergstrasse, Germany), 2023).

What was measured:
Assay type in all cases: biochemical
PtmJ = molecular target: T1, PtmJ (Streptomyces pactum, UniProt A8R0J5); test: enzymatic glycosylation
T1 sequence (A8R0J5 1-318): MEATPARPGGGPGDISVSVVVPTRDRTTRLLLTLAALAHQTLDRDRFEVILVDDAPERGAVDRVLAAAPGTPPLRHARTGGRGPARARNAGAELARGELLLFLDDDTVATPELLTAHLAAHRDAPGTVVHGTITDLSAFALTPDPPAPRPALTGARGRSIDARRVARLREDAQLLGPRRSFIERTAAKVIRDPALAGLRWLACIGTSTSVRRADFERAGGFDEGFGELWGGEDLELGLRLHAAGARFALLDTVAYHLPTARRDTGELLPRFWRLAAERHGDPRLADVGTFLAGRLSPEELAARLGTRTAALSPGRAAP

PtmN = molecular target: T2, PtmN (Streptomyces pactum, UniProt A8R0J9); test: mass spectrometry of product; conditions: NAD+; cofactor recycling as for GlcNAc-3AAP
T2 sequence (A8R0J9 1-351): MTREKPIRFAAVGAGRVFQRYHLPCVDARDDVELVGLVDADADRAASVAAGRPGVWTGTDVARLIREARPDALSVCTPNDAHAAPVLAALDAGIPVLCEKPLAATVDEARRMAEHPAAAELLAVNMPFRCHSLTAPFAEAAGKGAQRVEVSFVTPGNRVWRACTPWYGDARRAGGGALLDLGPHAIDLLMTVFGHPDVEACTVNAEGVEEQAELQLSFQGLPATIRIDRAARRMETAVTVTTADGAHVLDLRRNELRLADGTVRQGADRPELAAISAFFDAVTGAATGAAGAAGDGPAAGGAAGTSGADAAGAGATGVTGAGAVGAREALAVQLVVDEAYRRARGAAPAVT

PtmG = molecular target: T3, PtmG (Streptomyces pactum, UniProt A8R0J2); test: mass spectrometry of substrate consumption; conditions: formed in situ by PtmN, PtmA and PtmB; 10 h with PtmG
T3 sequence (A8R0J2 1-378): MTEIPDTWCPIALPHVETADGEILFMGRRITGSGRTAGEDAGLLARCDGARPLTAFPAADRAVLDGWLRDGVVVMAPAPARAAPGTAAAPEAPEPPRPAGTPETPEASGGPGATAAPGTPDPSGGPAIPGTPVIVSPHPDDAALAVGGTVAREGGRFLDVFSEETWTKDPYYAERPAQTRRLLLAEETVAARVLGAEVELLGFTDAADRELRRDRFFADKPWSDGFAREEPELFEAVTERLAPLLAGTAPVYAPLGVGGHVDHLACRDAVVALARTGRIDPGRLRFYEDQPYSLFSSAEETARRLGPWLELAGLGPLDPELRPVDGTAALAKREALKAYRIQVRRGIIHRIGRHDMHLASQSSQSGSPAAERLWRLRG

Question: Which “enzymatic glycosylation; product used in the next reactions” value (PtmJ) does the source give for `CC(=O)NCCSC(=O)c1cccc(N)c1` [3ABA-SNAC] here?
Answer: Its value is “The 3ABA-SNAC was first glycosylated with the glycosyltransferase PtmJ”.

Question: For `CC(=O)NCCSC(=O)c1cccc(N[C@@H]2O[C@H](CO)[C@@H](O)[C@H](O)[C@H]2NC(C)=O)c1` [compound 15, GlcNAc-3ABA-SNAC], which “mass spectrometry of product” value (PtmN) is on record?
Answer: Its value is “reaction of GlcNAc-3ABA-SNAC with PtmN showed an oxidation product”.

Question: `CC(=O)N[C@@H]1[C@@H](NC(N)=O)[C@H](O)[C@@H](CO)O[C@H]1Nc1cccc(C(C)=O)c1` [compound 20, N-carbamoylated GlcNAc-3AAP] was tested. Which “mass spectrometry of substrate consumption” value (PtmG) did it give?
Answer: The value was “after incubation with PtmG, the carbamoylated GlcNAc-3AAP was partially consumed”.
